Source: US20150037375A1, “DOPING AGENTS AND POLYMERIC COMPOSITIONS THEREOF FOR CONTROLLED DRUG DELIVERY” (TRUSTEES OF BOSTON UNIVERSITY ET AL, priority 2011, published 2015)
In brackets after ≈: the same amount, converted by molar mass.

How the values were obtained:
[1] = tested on: Lewis Lung Carcinoma (LLC) cells; assay: Cell viability (MTT) after 24 hour treatments with drug-loaded meshes, LLC cells
Procedure: (§1) The meshes contained either 0.01, 0.1, or 1.0 w/w % drug (SN38 or CPT-11). The camptothecin release from these meshes was tested using a cell viability assay following 24 hour treatments with camptothecin-loaded or unloaded meshes. […] Individual camptothecin-loaded and unloaded meshes were placed in permeable filter supports (Polyester membrane insert, 3.0 μm pore size; Corning Incorporated, Corning, N.Y.) and maintained in SPM. Medium was changed periodically to ensure continued drug release. […] At designated time points, subconfluent cells were harvested and seeded on 12-well plates at 30,000 cells/well in SPM. After 24 hours, filter supports and meshes were transferred from holding wells to the wells containing tumor cells in 2 mL of fresh SPM. After 24 hours of co-incubation with tumor cells, films were returned to holding wells in fresh SPM until the subsequent time point. Five days after treatment, tumor cell viability was measured using a colorimetric MTT (3-(4,5-dimethyl-2-thiazolyl)-2,5-diphenyltetrazolium bromide) cell proliferation assay (Sigma, St. Louis, Mo.). Cell viability was calculated as the percentage of the positive control absorbance for each cell line at each time point.

[2] = tested on: HT-29 colorectal cancer cells; assay: In vitro cytotoxicity (MTS/MTT) of drug-loaded meshes, HT-29 cells
Procedure: as §1

[3] = Lactone form of SN-38 released from meshes; details: control, bolus of SN-38 added to pH 6.4 PBS for an hour
Procedure: An additional release study was performed to determine if the active form of SN-38 was preserved within electrospun meshes.

SMILES: CCc1c2c(nc3ccc(O)cc13)-c1cc3c(c(=O)n1C2)COC(=O)[C@]3(O)CC [SN-38, 7-ethyl-10-hydroxycamptothecin]
- IC-50 [1]: ≈ 8 ng/mL
- IC50 [2]: 3.4 ng/mL (≈ 8.66 nM)
- SN-38 remaining in the active lactone form [3]: 73%
